Measured values from ChEMBL document CHEMBL3124860, “Fragment-based identification of amides derived from trans-2-(pyridin-3-yl)cyclopropanecarboxylic acid as potent inhibitors of human nicotinamide phosphoribosyltransferase (NAMPT)” (J Med Chem, 2014).
Converted amounts (≈) assume the structure as drawn.

Experiments:
[1] = Clearance in human liver microsomes at 1 uM up to 60 mins by LC-MS/MS analysis; format: ADME
in vitro = conditions: dog, MDCK
physchem = conditions: buffer
[2] = Clearance in CD-1 mouse hepatocytes at 1 uM up to 3 hrs by LC-MS/MS analysis; format: ADME, cell-based, Hepatocyte
[3] = Clearance in CD-1 mouse liver microsomes at 1 uM up to 60 mins by LC-MS/MS analysis; format: ADME, Microsome
[4] = buffer, 24 h
[5] = Cmax in NCR nude mouse at 10 mg/kg, po bid after 24 hrs; format: ADME, organism-based; parameters: dose 10 mg/kg, route oral; conditions: in vivo
[6] = AUC (0 to last) in NCR nude mouse at 10 mg/kg, po bid after 24 hrs; format: ADME, organism-based; parameters: time 0 - last, dose 10 mg/kg, route oral; conditions: plasma

Row | Structure (SMILES) | CLhep predicted at 1 µM [1] [mL/min/kg] | solubility at 24 h (physchem) [µM] | further results
1 | O=S1(=O)N=C(NCc2ccc(S(=O)(=O)c3ccccc3)cc2)Nc2ccncc21 | 6 | 1 (≈ 0.428 µg/mL) | Papp A→B at 10 µM (in vitro): 0.8 ×10⁻⁶ cm/s
2 | CC(C)(C)OC(=O)N1CC2(CCN(C(=O)[C@H]3C[C@@H]3c3cccnc3)C2)C1 (relative stereo) | 10 | 133 (≈ 47.5 µg/mL) | 
3 | CC(C)(C)OC(=O)N1C[C@H]2CCN(C(=O)[C@@H]3C[C@H]3c3cccnc3)[C@H]2C1 (racemic) | 18 | 165 (≈ 59 µg/mL) | 
4 | O=C(NCCCCCCOc1ccc(Cl)cc1)[C@@H]1C[C@H]1c1cccnc1 (racemic) | 19 | 13 (≈ 4.85 µg/mL) | 
5 | O=C(/C=C/c1cccnc1)NCCCCC1CCN(C(=O)c2ccccc2)CC1 [DAPORINAD] | 15 |  | 
6 | O=C(NCCCCC1CCN(C(=O)c2ccccc2)CC1)[C@@H]1C[C@H]1c1cccnc1 (racemic) | 19 | 223 (≈ 90.4 µg/mL) | 
7 | CC(C)n1cc(S(=O)(=O)c2ccc(NC(=O)[C@@H]3C[C@H]3c3cccnc3)cc2)cn1 (racemic) |  |  | CLhep predicted at 1 µM [2]: 60 mL/min/kg; CLhep predicted at 1 µM [3]: 75 mL/min/kg; solubility [4]: 66 µM (≈ 27.1 µg/mL); Papp A→B at 10 µM (in vitro): 10 ×10⁻⁶ cm/s
8 | O=C(Nc1ccc(S(=O)(=O)N2CCOCC2)cc1)[C@@H]1C[C@H]1c1cccnc1 (racemic) | 13 | 88 (≈ 34.1 µg/mL) | 
9 | O=S1(=O)NC(NCc2ccc(S(=O)(=O)N3CCC(N4CCCC4)CC3)cc2)=Nc2ccncc21 | 8 | 104 (≈ 52.5 µg/mL) | Papp A→B at 10 µM (in vitro): 0.1 ×10⁻⁶ cm/s
10 | CC(C)(C)OC(=O)N1C[C@@H]2CCN(C(=O)[C@@H]3C[C@H]3c3cccnc3)[C@@H]2C1 (racemic) | 18 | 165 (≈ 59 µg/mL) | 
11 | Nc1ccc([C@@H]2C[C@H]2C(=O)NCc2ccc(S(=O)(=O)c3ccccc3)cc2)cn1 (racemic) | 9 | 7 (≈ 2.85 µg/mL) | 
12 | Nc1ccc([C@@H]2C[C@H]2C(=O)Nc2ccc(S(=O)(=O)c3ccccc3)cc2)cn1 (racemic) | 6 | 36 (≈ 14.2 µg/mL) | 
13 | O=C(Nc1ccc(S(=O)(=O)N2CC3CCC(C2)O3)cc1)[C@@H]1C[C@H]1c1cccnc1 (mixture of isomers) | 16 |  | 
14 | O=C(Nc1ccc(S(=O)(=O)c2ccccc2)cc1)[C@@H]1C[C@H]1c1ccncc1 (racemic) | 9 | 1 (≈ 0.378 µg/mL) | 
15 | Nc1ccc(CNC(=O)Nc2ccc(S(=O)(=O)c3ccccc3)cc2)cn1 | 5 | 99 (≈ 37.9 µg/mL) | 
16 | O=C(NCc1ccc(S(=O)(=O)c2ccccc2)cc1)[C@@H]1C[C@H]1c1ccncc1 (racemic) | 9 | 59 (≈ 23.2 µg/mL) | 
17 | O=C(NCc1ccc(S(=O)(=O)c2ccccc2)cc1)[C@@H]1C[C@H]1c1cccnc1 (racemic) | 15 | 15 (≈ 5.89 µg/mL) | 
18 | N#CN=C(NCCCCCCOc1ccc(Cl)cc1)Nc1ccncc1 [CHS-828] | 15 | 2.2 (≈ 0.818 µg/mL) | 
19 | O=C(Nc1ccc(S(=O)(=O)C2CCOCC2)cc1)[C@@H]1C[C@H]1c1cccnc1 (racemic) | 13 | 93 (≈ 35.9 µg/mL) | 
20 | O=C(Nc1ccc(S(=O)(=O)c2ccccc2)cc1)[C@@H]1C[C@H]1c1cccnc1 (racemic) |  |  | CLhep predicted at 1 µM [2]: 63 mL/min/kg; CLhep predicted at 1 µM [3]: 76 mL/min/kg; solubility [4]: 20 µM (≈ 7.57 µg/mL); Papp A→B at 10 µM (in vitro): 24 ×10⁻⁶ cm/s

More lines, main results first:

Row | CLhep predicted at 1 µM [1] [mL/min/kg] | solubility at 24 h (physchem) [µM] | Structure (SMILES) | further results
21 | 10 | 6 (≈ 2.36 µg/mL) | Cc1ccc(S(=O)(=O)c2ccc(NC(=O)[C@@H]3C[C@H]3c3cccnc3)cc2)cn1 (racemic) | 
22 | 15 |  | O=C(Nc1ccc(S(=O)(=O)c2cnn(C3CCOCC3)c2)cc1)[C@@H]1C[C@H]1c1cccnc1 (racemic) | CLhep predicted at 1 µM [2]: 51 mL/min/kg; CLhep predicted at 1 µM [3]: 77 mL/min/kg
23 | 16 | 1 (≈ 0.425 µg/mL) | Cc1nn(C(C)C)cc1S(=O)(=O)c1ccc(NC(=O)[C@@H]2C[C@H]2c2cccnc2)cc1 (racemic) | 
24 | 3 | 155 (≈ 68.3 µg/mL) | CC(C)(O)Cn1cc(S(=O)(=O)c2ccc(NC(=O)[C@@H]3C[C@H]3c3cccnc3)cc2)cn1 (racemic) | 
25 | 9 | 1 (≈ 0.457 µg/mL) | CS(=O)(=O)c1cccc(S(=O)(=O)c2ccc(NC(=O)[C@@H]3C[C@H]3c3cccnc3)cc2)c1 (racemic) | CLhep predicted at 1 µM [2]: 54 mL/min/kg; CLhep predicted at 1 µM [3]: 74 mL/min/kg; Papp A→B at 10 µM (in vitro): 2.7 ×10⁻⁶ cm/s
26 | 7 | 15 (≈ 5.68 µg/mL) | O=C(Nc1ccc(S(=O)(=O)c2ccccc2)cc1)[C@@H]1C[C@H]1c1cccnc1 (single isomer, unassigned; enantiomer 2) | 
27 | 12 | 48 (≈ 19.7 µg/mL) | CCCn1cc(S(=O)(=O)c2ccc(NC(=O)[C@@H]3C[C@H]3c3cccnc3)cc2)cn1 (racemic) | CLhep predicted at 1 µM [2]: 59 mL/min/kg; CLhep predicted at 1 µM [3]: 75 mL/min/kg; Papp A→B at 10 µM (in vitro): 11.5 ×10⁻⁶ cm/s
28 | 8 | 23 (≈ 10.4 µg/mL) | O=C(Nc1ccc(S(=O)(=O)c2cnn(CC(F)(F)F)c2)cc1)[C@@H]1C[C@H]1c1cccnc1 (racemic) | 
29 | 10 | 1 (≈ 0.462 µg/mL) | O=C(Nc1ccc(S(=O)(=O)c2cccc(OC(F)(F)F)c2)cc1)[C@@H]1C[C@H]1c1cccnc1 (racemic) | CLhep predicted at 1 µM [2]: 49 mL/min/kg; CLhep predicted at 1 µM [3]: 69 mL/min/kg; Papp A→B at 10 µM (in vitro): 7.4 ×10⁻⁶ cm/s
30 | 10 | 1 (≈ 0.446 µg/mL) | O=C(Nc1ccc(S(=O)(=O)c2cccc(C(F)(F)F)c2)cc1)[C@@H]1C[C@H]1c1cccnc1 (racemic) | 
31 | 19 | 30 (≈ 12.7 µg/mL) | Cc1c(S(=O)(=O)c2ccc(NC(=O)[C@@H]3C[C@H]3c3cccnc3)cc2)cnn1C(C)C (racemic) | 
32 | 11 | 15 (≈ 5.68 µg/mL) | O=C(Nc1ccc(S(=O)(=O)c2ccccc2)cc1)[C@H]1C[C@@H]1c1cccnc1 (single isomer, unassigned; enantiomer 1) | CLhep predicted at 1 µM [2]: 78 mL/min/kg; CLhep predicted at 1 µM [3]: 79 mL/min/kg; Papp A→B at 10 µM (in vitro): 21.2 ×10⁻⁶ cm/s
33 | 13 | 16 (≈ 6.57 µg/mL) | CCCn1cc(S(=O)(=O)c2ccc(NC(=O)[C@H]3C[C@@H]3c3cccnc3)cc2)cn1 | CLhep predicted at 1 µM [2]: 75 mL/min/kg; Cmax [5]: 34.6 µM; AUC(0-t) at 24 h [6]: 126 µM·h; CLhep predicted at 1 µM [3]: 79 mL/min/kg; Papp A→B at 10 µM (in vitro): 7.1 ×10⁻⁶ cm/s
34 | 12 | 6 (≈ 2.49 µg/mL) | O=C(Nc1ccc(S(=O)(=O)c2cc(F)cc(F)c2)cc1)[C@@H]1C[C@H]1c1cccnc1 (racemic) | 
35 | 12 | 59 (≈ 24.2 µg/mL) | CC(C)n1cc(S(=O)(=O)c2ccc(NC(=O)[C@@H]3C[C@H]3c3cccnc3)cc2)cn1 | 
36 | 11 | 77 (≈ 31.6 µg/mL) | CC(C)n1cc(S(=O)(=O)c2ccc(NC(=O)[C@H]3C[C@@H]3c3cccnc3)cc2)cn1 | CLhep predicted at 1 µM [2]: 76 mL/min/kg; CLhep predicted at 1 µM [3]: 80 mL/min/kg; Papp A→B at 10 µM (in vitro): 9.7 ×10⁻⁶ cm/s
37 | 8 | 72 (≈ 28.5 µg/mL) | CCn1cc(S(=O)(=O)c2ccc(NC(=O)[C@@H]3C[C@H]3c3cccnc3)cc2)cn1 (racemic) | 
